Several values for one entry are separate records, joined by “and”; a condition that tells them apart may be missing. Equal values may be shown once. Read-outs that look alike come from different tables or passages of the source.
Key:
[1] = value from Scifinder database, cited from earlier work; for PSA: in Å2 (unit assumed)
[2] = Measurement 3: migration R of drug ion to liposome; format: physicochemical; settings: 20 mM EPC liposome and 3.125 mM drug solution 1:1 by volume; 37° C., 18 hours; average of 3
Procedure: 20 mM of an EPC liposome (yolk phosphatidylcholine (lecithin)/particle diameter 290 to 490 nm) and 3.125 mM of a drug solution were mixed at a volume ratio of 1:1, and the mixture was incubated at 37° C. for 18 hours. After that, the resultant was centrifuged, and the amount of a drug ion in each of the supernatant and the precipitate was measured by HPLC, whereby the amount of the drug ion (unit: nmol/cm^3) that had migrated to the EPC liposome was measured.
The above measurement was performed 3 times for each sample, and the average value of the measurements was determined as the migration R.

[3] = Prediction of Log(M*/C) from measured C and R by Equation 2; design: species or system rat; settings: M* determined as a function of measured C and R values (Eq. 2)
[4] = Measurement 1: migration M of drug ion to skin with membrane type iontophoresis device; format: in vitro ADME, rat; settings: for LogM: log of migration M, 6.25 mM, 0.94 mA, 60 minutes; for LogM / M (migration of drug ion to skin): rat back skin; for M (migration of drug ion to skin): 6.25 mM drug solution, constant current 0.94 mA for 60 minutes, average of 3
Source text: (§1) In some embodiments, a working side assembly 10 of the device 1 may include a working side electrode (negative electrode) 11; an electrolyte solution holding portion 12 for holding a physiological salt solution; a cation exchange membrane 13 on the front surface side of the electrolyte solution holding portion; a drug solution holding portion 14 for holding a drug solution on the front surface side of the cation exchange membrane 13; and an anion exchange membrane 15 on the front surface side of the drug solution holding portion.
(§2) In some embodiments, a non-working side assembly 20 of the device 1 may include a non-working side electrode (positive electrode) 21; an electrolyte solution holding portion 22 for holding a physiological salt solution; an anion exchange membrane 23 on the front surface side of the electrolyte solution holding portion 22; an electrolyte solution holding portion 24 for holding a physiological salt solution on the front surface side of the anion exchange membrane 23; and a cation exchange membrane 25 on the front surface side of the electrolyte solution holding portion 24. It should be noted that an ion exchange membrane CLE 04-2 manufactured by Tokuyama Co., Ltd. was used as each of the ion exchange membrane 13 and the ion exchange membrane 25, and an ion exchange membrane ALE 04-2 manufactured by Tokuyama Co., Ltd. was used as each of the ion exchange membrane 15 and the ion exchange membrane 23.
Energization was performed in a state where a corium layer 32 was brought into contact with the physiological salt solution of the electrolyte solution holding portion 26. After energization, the skin 30 was frozen and processed.
The above measurement was performed 3 times for each sample, and the average value of the measurements was determined as the migration M.

[5] = Measurement 2: migration C of drug ion under skin-absent condition (through anion exchange membrane into physiological salt solution); format: physicochemical; settings: for C (migration of drug ion under skin-absent condition): 6.25 mM drug solution, constant current 0.94 mA for 60 minutes, average of 3; for LogC: log of migration C, 6.25 mM, 0.94 mA, 60 minutes
Source text: as §1, §2
The drug solution composition of the drug solution holding portion 14, energization conditions, and the like were identical to those of Measurement 1.
The above measurement was performed 3 times for each sample, and the average value of the measurements was determined as the migration C.

Molecule | LogD [1] | LogP [1] | PSA [1] | LogR (migration R of drug ion to liposome) [2] | Predicted Log(M*/C) [3] | Log(M/C) ([4]; from measured M and C) | LogM [4] | M (migration of drug ion to skin) [4] [nmol/mL] | C (migration of drug ion under skin-absent condition) [5] | LogC [5] | Log(M/C) [4]
COc1ccc2c(c1)c(CC(=O)O)c(C)n2C(=O)c1ccc(Cl)cc1 [Indomethacin] | −0.13 | 3.11 | 64 | 0.23 | −0.49 | −0.87 | 2.47 | 296 | 2189 nmol/mL | 3.34 | –
O=C(O)c1ccccc1O [Salicylic acid] | −1.08 | 2.06 | 58 | −0.49 | −1.04 | −0.96 | 2.87 | 749 | 6800 nmol/mL | 3.83 | –
O=C(O)Cc1ccc(-c2ccccc2)cc1 [Felbinac] | 0.83 | 3.26 | – | 0.27 | – | – | – | – | 3409 nmol/mL | 3.53 | –
CC(C(=O)O)c1cccc(C(=O)c2ccccc2)c1 (centres unmarked) [Ketoprofen] | 0.33 | – | 54 | −0.29 | −0.89 | – | – | – | 2432 nmol/mL | 3.39 | –
O=C(O)Cc1c[nH]c2ccccc12 [Indoleacetic acid, 3-Indoleacetic acid] | −1.37 | 1.43 | – | −0.69 | – | – | – | – | 7822 nmol/mL | 3.89 | –
O=C(O)Cc1ccccc1Nc1c(Cl)cccc1Cl [Diclofenac] | – | – | – | – | 0.1 | 0.3 | 3.16 | – | – | 2.86 | –
1-Naphtaleneacetic acid [Napthaleneacetic acid] | – | – | 37 and 37.3 | −0.47 | −1.03 | – | – | – | 4806 nmol/mL | 3.68 | −0.8
CCc1cccc2c3c([nH]c12)C(CC)(CC(=O)O)OCC3 (centres unmarked) [Etodolac] | – | – | – | – | −0.54 | −0.93 | 2.48 | – | – | 3.41 | –
O=C(O)CCCc1c[nH]c2ccccc12 [Indolebutylic acid, Indolebutyric acid] | – | – | 53 and 53.1 | −0.26 | −0.87 | – | – | – | 3744 nmol/mL and 3774 nmol/mL | 3.58 | −0.74
